Measured values reported in paper PMC12322948 (The Journal of Organic Chemistry, 2025).
Where two headings read alike, the source gives them in different places.

Biological target: T1, ACE2 (Homo sapiens, UniProt Q9BYF1)
T1 construct: purchased Abcam/BioVision ab273373
Experiment: ACE2 inhibition assay (Abcam ACE2 Inhibitor Screening Kit, fluorogenic MCA peptide substrate)
Assay type: biochemical
Details: for pIC50 exp-MLN – pIC50 exp: difference between experimental pIC50 of MLN-4760 and of the compound
Method: Having validated our radiosynthetic approach to (S,S)-[^18F]1 and with various fluorinated MLN-4760 analogues in hand, we next looked to evaluate the inhibitory activity of the analogues using a commercially available ACE2 inhibition assay kit (Table ) (Figure ). […] Consequently, the pIC50 values of the tested compounds were evaluated relative to our experimentally measured value for MLN-4760 in order to identify lead candidates for radiolabeling. […] The difference between the in vitro pIC^exp 50 for MLN-4760 and the pIC^exp 50 values of (S,S)-1–(S,S)-4 aligned with the difference in the in silico predicted pIC50 (pIC^pr 50) of MLN-4760 and pIC^pr 50 values of (S,S)-1–(S,S)-4. Specifically, these pIC50 differences for all 3,5-disubstituted benzyl analogues (S,S)-2, (S,S)-3, and (S,S)-4 were smaller than for the para-substituted benzyl analogue (S,S)-1, providing support for the pIC^pr 50 values (Table ). Consequently, compounds (S,S)-2, (S,S)-3 and (S,S)-4, with pIC50 values in the same range as MLN-4760, emerge as priority targets for future ACE2 PET radioligand development.
The assay for the inhibition of ACE2 was conducted using a commercially available ACE2 Inhibitor Screening Kit, purchased from Abcam (ACE2 Inhibitor Screening Kit, ab273373; Abcam/BioVision), in 96-well microplates (half area, black, flat bottomed, Greiner Bio-One International) at ambient temperature (set to 23.5 °C), total volume 100 µL. The assay employs a synthetic MCA-based peptide substrate that, upon cleavage by active ACE2, releases a fluorophore measurable by a fluorescence microplate reader (Ex/Em = 320/420 nm). Compounds to be tested were serially diluted with dilution buffer from a stock solution (5 mg/mL) in dimethyl sulfoxide (DMSO) to different concentrations.
Diluted ACE2 enzyme solution was prepared by diluting ACE2 enzyme (20 µL, provided in the kit) with dilution buffer (198 µL, provided in the kit ) and was aliquoted and stored at -20 °C.
Diluted ACE2 enzyme solution (2 µL) was added to assay buffer (48 µL ) to make ACE2 enzyme working solution. Inhibitor solution was prepared by adding the cont rol inhibitors (5 µL, 0.5 mM) to dilution buffer (50 µL) and was aliquoted and stored at -20 °C. The ACE2 substrate was aliquoted and stored at -20 °C. ACE2 substrate solution was prepared by diluting substrate (2 µL) […]
Five controls were prepared: enzyme control (positive control, inhibition free reaction), inhibitor control (negative control to test inhibition), background control (to remove fluorescence from the background), test compound control (to test whether the test compounds react with the substrate) and vehicle control (to test the effect of solvent DMSO on ACE2 enzyme activity).
For enzyme control, inhibitor control and vehicle control, and test compounds, ACE2 enzyme working solution (50 µL) was added. For background control and test compound control, assay buffer (50 µL) was added. Then, assay buffer (10 µL) was added to enzyme control and background control. DMSO solution in assay buffer (10 µL) was added to vehicle control. Inhibitor solution (10 µL) was added to inhibitor control. Test compound solution (10 µL) was added to the test compound control. For the test compound, compound solution (10 µL) with the different concentrations were added. An example of preparation can be found on Table S3.1. The mixture […]
and substrate were incubated separately at room temperature for 15 minutes before substrate (40 µL) was added to each test and mixed evenly to start the reaction. Fluorescence was monitored over 61-minutes (excitation = 320 nm, emission = 420 nm) using a Tecan microplate reader (Infinite® 200 PRO NanoQuant Microplate Reader). Fluorescence spectra were measured using the fluorescence intensity mode (excitation = 320 nm).
Table S4.1. Preparation of control and test compounds
Test Component 1 Component 2 Component 3
Vehicle control 50 µL enzyme1 10 µL DMSO (0.1 mM) 40 µL substrate2
Background control 50 µL assay buffer 10 µL assay buffer 40 µL substrate […]

[1] = Abcam ACE2 inhibitor screening kit, read-out: pIC50 exp (experimental pIC50) (converted)

T1 sequence (Q9BYF1 18-805): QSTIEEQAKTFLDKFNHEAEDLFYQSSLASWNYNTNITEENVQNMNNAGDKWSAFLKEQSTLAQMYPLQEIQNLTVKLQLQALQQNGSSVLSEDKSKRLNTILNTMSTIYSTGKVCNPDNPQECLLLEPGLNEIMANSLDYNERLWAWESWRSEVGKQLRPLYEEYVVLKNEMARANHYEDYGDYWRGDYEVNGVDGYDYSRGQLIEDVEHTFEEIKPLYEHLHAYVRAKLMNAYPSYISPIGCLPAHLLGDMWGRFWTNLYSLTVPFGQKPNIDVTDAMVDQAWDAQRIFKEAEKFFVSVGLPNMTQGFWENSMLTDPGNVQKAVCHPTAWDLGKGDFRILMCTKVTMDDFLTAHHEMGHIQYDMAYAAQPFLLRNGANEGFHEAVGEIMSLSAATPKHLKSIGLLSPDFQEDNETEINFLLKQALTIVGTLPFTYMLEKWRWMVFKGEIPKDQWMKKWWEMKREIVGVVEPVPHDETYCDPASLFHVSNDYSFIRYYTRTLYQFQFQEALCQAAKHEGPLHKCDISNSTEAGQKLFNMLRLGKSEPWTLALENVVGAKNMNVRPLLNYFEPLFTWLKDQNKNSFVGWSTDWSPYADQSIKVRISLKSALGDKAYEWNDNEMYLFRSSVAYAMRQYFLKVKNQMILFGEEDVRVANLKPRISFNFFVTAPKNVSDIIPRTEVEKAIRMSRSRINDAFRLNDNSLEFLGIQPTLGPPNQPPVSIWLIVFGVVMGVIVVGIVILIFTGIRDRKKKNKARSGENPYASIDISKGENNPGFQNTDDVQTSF

| Compound | IC50 [nM] | pIC50 exp-MLN – pIC50 exp | IC50 [1] [nM] |
| --- | --- | --- | --- |
| Cc1cc(F)cc(Cn2cncc2C[C@H](N[C@@H](CC(C)C)C(=O)O)C(=O)O)c1 [(S,S)-2] | 66.1 | 0.36 |  |
| CC(C)C[C@H](N[C@@H](Cc1cncn1Cc1ccc(F)cc1)C(=O)O)C(=O)O [(S,S)-1] |  | 0.85 | 204 |
| COc1cc(Cn2cncc2C[C@H](N[C@@H](CC(C)C)C(=O)O)C(=O)O)cc(OCCF)c1 [(S,S)-4] | 53.7 | 0.27 |  |
| CC(C)C[C@@H](N[C@@H](Cc1cncn1Cc1ccc(F)cc1)C(=O)O)C(=O)O [(S,R)-1] |  | 3.15 | 40700 |
| CC(C)C[C@H](N[C@@H](Cc1cncn1Cc1cc(F)cc(Cl)c1)C(=O)O)C(=O)O [(S,S)-3] | 24.5 | –0.07 |  |
| CC(C)C[C@H](N[C@@H](Cc1cncn1Cc1cc(Cl)cc(Cl)c1)C(=O)O)C(=O)O [MLN-4760, (S,S)-2-(1-carboxy-2-(3-(3,5-dichlorobenzyl)-3H-imidazol-4-yl)-ethylamino)-4-methylpentanoic acid, reference compound] | 28.8 | 0.00 |  |
